Key:
Aβ(1-42) aggregates [1] = molecular target: T1, Aβ(1-42) aggregates (Homo sapiens, UniProt P05067); experiment: Inhibition experiment using [125I] compound 11 as radioactive ligand, Aβ(1-42) aggregates; type: binding; conditions: radioligand [125I] compound 11; Cheng-Prusoff; read-out: Inhibition constant (Ki, nM) Aβ(1-42)
T1 construct: the amyloid β protein (Human, 1-42) [TFA form]; purchased Peptide Institute, Inc
Description: (§1) Aβ aggregates was dissolved in a buffer (pH 7.4) that contained 10 mM sodium phosphate and 1 mM EDTA, resulting in a concentration of 0.5 mg/ml. Thereafter, the obtained solution was incubated at 37° C. for 36 to 42 hours. A binding experiment was carried out using 12×75 mm borosilicate glass tubes. […] The obtained mixture was left at room temperature for 3 hours. Non-specific bond was calculated using nonradioactive compound 11 (1 μM). […] The radioactivity of a substance remaining in the filter used in filtration was measured with a γ counter. With regard to [^125I] compound 11, the Kd value thereof was calculated by the Scatchard analysis. In addition, using [^125I] compound 11 as a radioactive ligand, an inhibition experiment was carried out by the following method using the Aβ(1-40) aggregates and the Aβ(1-42) aggregates. […] The obtained mixture was left at room temperature for 3 hours. Non-specific bond was calculated using nonradioactive compound 11 (1 μM). The 50% inhibitory concentration was calculated using GraphPad Prism (GraphPad Software), and the inhibition constant (Ki value) was calculated according to the formula of Cheng-Prusoff, Ki=IC50/(1+[L]/Kd). In this formula, [L] represents the concentration of [^125I] compound 11, and Kd represents the dissociation constant of [^125I] compound 11 to the Aβ(1-40) aggregates and the Aβ(1-42) aggregates.

[2] = tested on: senile plaque amyloid, cerebrovascular amyloid and neurofibrillary degeneration in brain tissues of patient with Alzheimer's disease; experiment: Binding experiment using brain tissues of patient with Alzheimer's disease (fluorescence microscopy of sections); set-up: species or system human; conditions: 100 nM, room temperature, 10 minutes; temporal lobe sections
Description: Tissues at the temporal lobe site of the brain of a patient with Alzheimer's disease were fixed with formalin, and were then embedded in paraffin. A section with a thickness of 5 μm was prepared from the paraffin block, and the paraffin was then removed by an ordinary treatment with xylene and ethanol (Lippa, C. F., Nee, L. E., Mori, H & George-Hyslop, P. (1998) The Lancet 352:1117-1118). As the final stage, neutralization was carried out with a phosphate buffer. Thereafter, compounds 10, 11, 19, and 20 were reacted in a concentration of 100 nM at room temperature for 10 minutes. Thereafter, the reaction product was washed with a phosphate buffer three times, and then with 50% ethanol three time, so as to terminate the reaction. Thereafter, the resultant was dehydrated by treatments with alcohol and xylene, followed by embedding with Entellan(R) new. The bond of the above compound was confirmed by image observation with a CCD camera (M-3204C) included with a fluorescence microscope (Olympus BX50).

Aβ(1-40) aggregates [3] = molecular target: T2, Aβ(1-40) aggregates (Homo sapiens, UniProt P05067); experiment: Inhibition experiment using [125I] compound 11 as radioactive ligand, Aβ(1-40) aggregates; type: binding; conditions: radioligand [125I] compound 11; Cheng-Prusoff; read-out: Inhibition constant (Ki, nM) Aβ(1-40)
T2 construct: The amyloid β protein (Human, 1-40) [HCl form]; purchased Peptide Institute, Inc
T2 sequence (P05067 672-711 limits assumed): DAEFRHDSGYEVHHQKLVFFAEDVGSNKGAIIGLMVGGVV
Description: as §1

[4] = Radioactivity distribution in mouse body after intravenous administration of radioiodine labeled forms; conditions: normal mice, intravenous, [125I]-labelled form
Description: Thereafter, 100 μl (0.5 to 1 μCi) of each labeled form was intravenously administered to each group consisting of three to five 5-week-old ddY male mice (25 to 30 g). 2, 10, 30, and 60 minutes after the intravenous administration, such mice were decapitated, and blood was collected. Thereafter, organs were excised, and the weight and radioactivity thereof were then measured.

Aβ(1-40) aggregates [5] = molecular target: T2, Aβ(1-40) aggregates; experiment: In vitro binding of [125I]-labelled compounds to Aβ aggregates (filtration, radioactivity on filter); conditions: [125I]-labelled compound; radioactivity remaining on filter in presence vs absence of Aβ aggregates
Description: as §1

Aβ(1-42) aggregates [6] = molecular target: T1, Aβ(1-42) aggregates; experiment: Saturation experiment of [125I] compound 11 with Scatchard analysis, Aβ(1-42) aggregates; type: binding; conditions: read-out: dissociation equilibrium constant (Kd value)
Description: as §1

Aβ(1-40) aggregates [7] = molecular target: T2, Aβ(1-40) aggregates; experiment: Saturation experiment of [125I] compound 11 with Scatchard analysis, Aβ(1-40) aggregates; type: binding; conditions: read-out: dissociation equilibrium constant (Kd value)
Description: as §1

T1 sequence (P05067 672-713 limits assumed): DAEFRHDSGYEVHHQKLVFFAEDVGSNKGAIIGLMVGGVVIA

SMILES	Ki (Aβ(1-42) aggregates [1])	recognition of and binding to amyloid plaque, senile plaque having a neurodegenerative projection, cerebrovascular amyloid and neurofibrillary degeneration [2]	Ki (Aβ(1-40) aggregates [3])	rate of disappearance from the brain (rank among flavone derivatives) [4]	bindability to the Aβ aggregates (Aβ(1-40) aggregates [5])	Kd (Aβ(1-42) aggregates [6])	bindability to senile plaque having a neurodegenerative projection and to neurofibrillary degeneration [2]	binding to cerebrovascular amyloid [2]	binding to senile plaque [2]	Kd (Aβ(1-40) aggregates [7])
CNc1ccc(-c2cc(=O)c3cc(I)ccc3o2)cc1 [compound 10, 6-iodo-4′-methylaminoflavone]	30 ± 3.4 nM	recognize amyloid plaque, senile plaque having a neurodegenerative projection, cerebrovascular amyloid and neurofibrillary degeneration, and bind thereto	22.6 ± 3.4 nM	almost the same as that of [^125I] compound 11	high bindability	–	–	–	–	–
CN(C)c1ccc(-c2cc(=O)c3cc(I)ccc3o2)cc1 [compound 11, 6-iodo-4′-dimethylaminoflavone]	15.6 ± 2.4 nM	–	13.2 ± 0.2 nM	–	high bindability	17.6 ± 5.7 nM	has bindability	specifically binds to cerebrovascular amyloid	specifically binds to senile plaque	12.3 ± 2.3 nM
COc1ccc(-c2cc(=O)c3cc(I)ccc3o2)cc1 [compound 19, 6-iodo-4′-methoxyflavone]	38.3 ± 8.1 nM	recognize amyloid plaque, senile plaque having a neurodegenerative projection, cerebrovascular amyloid and neurofibrillary degeneration, and bind thereto	29 ± 3.2 nM	fastest	high bindability	–	–	–	–	–
